In ChEMBL document CHEMBL3352677, “Thiazolidine-2,4-diones as multi-targeted scaffold in medicinal chemistry: Potential anticancer agents” (2014):
Converted amounts (≈) assume the structure as drawn.

These compounds were tested on Artemia (assay: Cytotoxicity in brine shrimps larvae assessed as mortality after 24 hrs). Conditions: read-out: ED50 (the source's name).
Type: functional

Compound	EC50 [µg/mL]
O=C1NC(=O)/C(=C/c2ccc(/C=C/C(=O)c3cccc(F)c3)cc2)S1	4 (≈ 11.3 µM)
O=C1NC(=O)/C(=C/c2ccc(/C=C/C(=O)c3ccc(F)cc3)cc2)S1	4 (≈ 11.3 µM)
O=C1NC(=O)/C(=C/c2ccc(/C=C/C(=O)c3cccs3)cc2)S1	4 (≈ 11.7 µM)
COc1cc([C@@H]2c3cc4c(cc3[C@H](O)[C@H]3COC(=O)[C@H]23)OCO4)cc(OC)c1OC [PODOFILOX]	3.61 (≈ 8.71 µM)
